# Laboratory results published in patent US20110144079A1, “ANTIMICROBIAL SYSTEM” (priority 2008, published 2011).
# How the values were obtained:
# P. mirabilis NCTC 12442 [1] = test: Broth microdilution MIC/MBC; format: cell-based; conditions: Proteus mirabilis, NCTC12442
# Summary of the method: (§1)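 NCCLS broth microdilution; MHB; salts 0.0000625–1% w/v, 2-fold; final inoculum 2×10^5 CFU/ml; 24 h, 37 °C, aerobic. MBC = 99.9% kill on MHA subculture of no-growth wells, 24 h.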
# MRSA [2] = test: Broth microdilution MIC/MBC; format: cell-based, methicillin-resistant S. aureus; conditions: Staphylococcus aureus
# Summary of the method: as §1
# B. cenocepacia J2315 = test: Biofilm assay (Calgary Biofilm Device), MBEC; format: cell-based; conditions: B. cenocepacia J2315 24 h biofilm, 24 h challenge
# Summary of the method: (§2)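 Using the Calgary Biofilm Device, 24 h biofilms grown at 37° C from ~10^7 CFU ml^−1 MHB inocula are rinsed and challenged with imidazolium salt dilutions. Recovery after sonication is scored visually and at 550 nm; the lowest growth-free concentration gives the MBEC.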
# C. tropicalis NCTC 7393 = test: Biofilm assay (Calgary Biofilm Device), MBEC; format: cell-based; conditions: C. tropicalis NCTC 7393 24 h biofilm, 24 h challenge
# Summary of the method: as §2
# E-MRSA 15 = test: Biofilm assay (Calgary Biofilm Device), MBEC; format: cell-based; conditions: E-MRSA 15 24 h biofilm, 24 h challenge
# Summary of the method: as §2
# E. coli PIII = test: Biofilm assay (Calgary Biofilm Device), MBEC; format: cell-based
# Summary of the method: as §2
# K. aerogenes NCTC 7427 = test: Biofilm assay (Calgary Biofilm Device), MBEC; format: cell-based; conditions: K. aerogenes NCTC 7427 24 h biofilm, 24 h challenge
# Summary of the method: as §2
# P. aeruginosa PA01 = test: Biofilm assay (Calgary Biofilm Device), MBEC; format: cell-based
# Summary of the method: as §2
# P. mirabilis NCTC 12442 [3] = test: Biofilm assay (Calgary Biofilm Device), MBEC; format: cell-based; conditions: P. mirabilis NCTC 12442 24 h biofilm, 24 h challenge
# Summary of the method: as §2
# S. aureus ATCC 29213 = test: Biofilm assay (Calgary Biofilm Device), MBEC; format: cell-based; conditions: S. aureus ATCC 29213 24 h biofilm, 24 h challenge
# Summary of the method: as §2
# [4] = test system: S. epidermidis ATCC 35984; test: Biofilm assay (Calgary Biofilm Device), MBEC; format: cell-based
# Summary of the method: as §2
# MRSA [5] = test: Biofilm assay (Calgary Biofilm Device), MBEC; format: cell-based, methicillin-resistant S. aureus
# Description: Biofilms of each test organism were grown in the Calgary Biofilm Device (commercially available as the MBEC Assay™ for Physiology & Genetics, Innovotech Inc., Edmonton, Alberta, Canada). The device, a micro-titre plated based assay, consists of two parts; a microtitre plate containing the inoculated test medium and a polystyrene lid with 96 identical pegs on which the microbial biofilm forms under gyrorotary incubation. The biofilm assay was conducted according to the MBEC™ assay protocol as supplied by the manufacturer, with slight modifications. Inocula of each test organism were prepared in MHB as described above and adjusted to provide a final inoculum density of ˜10^7 CFU ml^−1 (as confirmed by viable count). 150 μl of the inoculated media was transferred to each well of the 96-well microtitre plate and the assay plate lid, bearing 96 pegs was placed into the microtitre plate. The MBEC assay plates were placed in a gyrorotary incubator (37° C., 95% relative humidity) for 24 h to permit growth and comparison of 24 h biofilms of each test strain. Positive and negative growth controls were included in each plate (6 replicates). Initial and 24 h planktonic viable counts were measured, as were 24 h biofilm counts, expressed as CFU peg^−1, according to manufacturers instructions. After 24 h, the peg lid of the MBEC assay plate was gently rinsed three times. After rinsing, the peg lid of the MBEC assay was transferred to a ‘challenge’ plate. Serial dilutions of each imidazolium salt were prepared in 200 μl of MHB containing various concentrations of IL in each well. Positive growth control and sterility control were included in each assay plate. […] Biofilms were dislodged into recovery media by sonication for 5 minutes and the peg lid discarded. The recovery plate is incubated overnight and visually checked after 24 h for turbidity. In addition, optical density measurements for each plate were recorded at 550 nm. Clear wells were taken as evidence of biofilm eradication and the MBEC value was assigned as the lowest concentration at which no growth was observed after 24 h incubation. Plates were incubated for a further 24 h to confirm biofilm eradication concentrations.
# MRSA [6] = test: Zone of inhibition on MRSA-seeded agar culture plates; format: cell-based, methicillin-resistant S. aureus; conditions: 40 μL of ionic liquid applied to MRSA-seeded agar culture plates
# Description: As used herein, CyMIMCI, refers to 1-alkyl-3-methyl-imidazolium chloride ionic liquids, wherein the alkyl group is a straight chain alkyl group having y carbon atoms.
# Escherichia Coli = test: Kill kinetics, planktonic cell cultures; format: cell-based; conditions: 265 μM
# Description: (§3) The kill kinetic data is provided in terms of the measured colony forming units per millilitre (CFU/mL) values, and is also provided graphically in FIGS. 9-11.
# [7] = test system: Methicillin Resistant Staphylococcus Aureus (MRSA); test: Kill kinetics, planktonic cell cultures; format: cell-based; conditions: 40 μM
# Description: as §3
# [8] = test system: Staphylococcus Epidermidis; test: Kill kinetics, planktonic cell cultures; format: cell-based; conditions: 40 μM
# Description: as §3
compound,measurement,setting,value
"CCCCCCCCCCCCCCn1cc[n+](C)c1.[Cl-] [C14MIMCl, 1-tetradecyl-3-methylimidazolium chloride]",MBC,"P. mirabilis NCTC 12442 [1]; P. mirabilis NCTC 12442, 99.9% killing",530 µM
same,MIC,"P. mirabilis NCTC 12442 [1]; P. mirabilis NCTC 12442, 24 h at 37° C.",264 µM
same,MBC,MRSA [2]; 99.9% killing,66 µM
same,MIC,MRSA [2]; 24 h at 37° C.,16 µM
same,MBEC,B. cenocepacia J2315,496 µM
same,MBEC,C. tropicalis NCTC 7393,248 µM
same,MBEC,E-MRSA 15,248 µM
same,MBEC,"E. coli PIII; E. coli PIII 24 h biofilm, 24 h challenge",124 µM
same,percent weight to volume of ionic liquid that corresponds to the MBEC value,E. coli PIII; E. coli PIII biofilm,(0.004 % w/v
same,MBEC,K. aerogenes NCTC 7427,248 µM
same,MBEC,"P. aeruginosa PA01; P. aeruginosa PA01 24 h biofilm, 24 h challenge",496 µM
same,percent weight to volume of ionic liquid that corresponds to the MBEC value,P. aeruginosa PA01; P. aeruginosa PA01 biofilm,(0.016 % w/v
same,MBEC,P. mirabilis NCTC 12442 [3],1984 µM
same,MBEC,S. aureus ATCC 29213,124 µM
same,MBEC,"[4]; S. epidermidis ATCC 35984 24 h biofilm, 24 h challenge",124 µM
same,percent weight to volume of ionic liquid that corresponds to the MBEC value,[4]; S. epidermidis ATCC 35984 biofilm,(0.004 % w/v
same,MBEC,"MRSA [5]; MRSA 24 h biofilm, 24 h challenge",124 µM
same,percent weight to volume of ionic liquid that corresponds to the MBEC value,MRSA [5]; MRSA biofilm,(0.004 % w/v
same,Zone Of Inhibition Radius,MRSA [6],10 mm
same,colony forming units per millilitre,Escherichia Coli; 0 Minutes,1.67 × 10^8 CFU/mL
same,colony forming units per millilitre,Escherichia Coli; 5 Minutes,1.07 × 10^4 CFU/mL
same,colony forming units per millilitre,Escherichia Coli; 10 Minutes,2.33 × 10^3 CFU/mL
same,colony forming units per millilitre,Escherichia Coli; 20 Minutes,0.00 CFU/mL
same,colony forming units per millilitre,Escherichia Coli; 30 Minutes,0.00 CFU/mL
same,colony forming units per millilitre,Escherichia Coli; 45 Minutes,0.00 CFU/mL
same,colony forming units per millilitre,[7]; 0 Minutes,1.52 × 10^8 CFU/mL
same,colony forming units per millilitre,[7]; 5 Minutes,1.78 × 10^5 CFU/mL
same,colony forming units per millilitre,[7]; 10 Minutes,2.75 × 10^3 CFU/mL
same,colony forming units per millilitre,[7]; 20 Minutes,3.33 × 10^2 CFU/mL
same,colony forming units per millilitre,[7]; 30 Minutes,0.00 CFU/mL
same,colony forming units per millilitre,[7]; 45 Minutes,0.00 CFU/mL
same,colony forming units per millilitre,[8]; 0 Minutes,8.67 × 10^7 CFU/mL
same,colony forming units per millilitre,[8]; 5 Minutes,0.00 CFU/mL
same,colony forming units per millilitre,[8]; 10 Minutes,0.00 CFU/mL
same,colony forming units per millilitre,[8]; 20 Minutes,0.00 CFU/mL
same,colony forming units per millilitre,[8]; 30 Minutes,0.00 CFU/mL
same,colony forming units per millilitre,[8]; 45 Minutes,0.00 CFU/mL
